Laboratory results reported in patent US6063783A, “Analgesic use of triazolo-pyridazine derivatives” (Merck Sharp & Dohme Ltd., priority 1997, dated 2000).

Legend:
[1] = system: carrageenan-induced hyperalgesia; assay: rat carrageenan-induced hyperalgesia assay; format: in vivo; settings: male Sprague Dawley rats, oral, given 2 h after carrageenan, mechanical thresholds at 3 h, read-out: ID50, inhibition of carrageenan-induced hyperalgesia
Procedure: Carrageenan-induced hyperalgesia
Male Sprague Dawley rats (100-120 g) received an intraplantar injection of carrageenan (4.5 mg) and mechanical thresholds were determined 3 h later using a modified Ugo Basile Algesiometer. Control rats received saline (0.15 ml i.pl.). Hyperalgesia was defined as the difference in vocalisation threshold for saline- and carrageenan-injected rats. Paw pressure scores for drug-treated rats were expressed as a percentage of this response. Compound A (1, 3 or 10 mg/kg) or vehicle were administered 2 h after carrageenan.
(§1) Compound A was suspended in 0.5% methocel and administered orally. Doses refer to the free base.

[2] = system: chain pulling; assay: chain pulling (sedation) in rats; format: in vivo, rat; settings: food-deprived P.V.G. rats; oral doses of up to 100 mg/kg; chain pulls recorded for up to 60 min
Procedure: Response sensitivity training and testing was carried out in standard operant conditioning chambers. Each chamber was equipped with a chain suspended from the centre of the ceiling and connected to a micro switch. Food pellets were delivered into a food magazine positioned at floor level in the centre of the front wall. Food-deprived P.V.G. rats (280-380 g) were trained to pull a chain for access to food pellets according to a random interval (RI) 30 s schedule. Animals received Compound A at 1, 3, 10, 30 or 100 mg/kg or vehicle and the number of chain pulls recorded for up to 60 min. Response rates for drug-treated animals are then expressed as a percentage of response rates for vehicle-treated rats.
as §1

Cn1ncnc1COc1nn2c(-c3ccccc3)nnc2cc1N1CCCC1 [Compound A, 6-(2-methyl-2H-1,2,4-triazol-3-ylmethoxy)-3-phenyl-7-(pyrrolidin-1-yl)-1,2,4-triazolo[4,3-b]pyridazine]
ED50 [1]: 5.3 mg/kg | effects on chain pulling (sedation) [2]: no effects
